PubChem BioAssay AID1259407 (Chemical Carcinogenesis Research Information System (CCRIS), 2018)
Calls of active or inactive are those of the source. How the calls were made is not given here.

Tested on: CCRIS mutagenicity, Ames/micronucleus/aberration tests
Assay: CCRIS mutagenicity studies
[1] = Test System: AMES SALMONELLA TYPHIMURIUM, Strain/Indicator: TA98, Metabolic Activation: HAMSTER, LIVER, S-9, AROCLOR 1254, Method: STANDARD PLATE
[2] = Test System: AMES SALMONELLA TYPHIMURIUM, Strain/Indicator: TA98, Metabolic Activation: NONE, Method: PREINCUBATION
[3] = Test System: AMES SALMONELLA TYPHIMURIUM, Strain/Indicator: TA98, Metabolic Activation: NONE, Method: STANDARD PLATE
[4] = Test System: AMES SALMONELLA TYPHIMURIUM, Strain/Indicator: TA98, Metabolic Activation: RAT, LIVER, S-9, AROCLOR 1254, Method: STANDARD PLATE
[5] = Test System: AMES SALMONELLA TYPHIMURIUM, Strain/Indicator: TA100, Metabolic Activation: HAMSTER, LIVER, S-9, AROCLOR 1254, Method: STANDARD PLATE
[6] = Test System: AMES SALMONELLA TYPHIMURIUM, Strain/Indicator: TA100, Metabolic Activation: NONE, Method: STANDARD PLATE
[7] = Test System: AMES SALMONELLA TYPHIMURIUM, Strain/Indicator: TA100, Metabolic Activation: RAT, LIVER, S-9, AROCLOR 1254, Method: STANDARD PLATE
[8] = Test System: AMES SALMONELLA TYPHIMURIUM, Strain/Indicator: TA1535, Metabolic Activation: HAMSTER, LIVER, S-9, AROCLOR 1254, Method: STANDARD PLATE
[9] = Test System: AMES SALMONELLA TYPHIMURIUM, Strain/Indicator: TA1535, Metabolic Activation: NONE, Method: STANDARD PLATE
[10] = Test System: AMES SALMONELLA TYPHIMURIUM, Strain/Indicator: TA1535, Metabolic Activation: RAT, LIVER, S-9, AROCLOR 1254, Method: STANDARD PLATE
[11] = Test System: AMES SALMONELLA TYPHIMURIUM, Strain/Indicator: TA1537, Metabolic Activation: HAMSTER, LIVER, S-9, AROCLOR 1254, Method: STANDARD PLATE
[12] = Test System: AMES SALMONELLA TYPHIMURIUM, Strain/Indicator: TA1537, Metabolic Activation: NONE, Method: STANDARD PLATE
[13] = Test System: AMES SALMONELLA TYPHIMURIUM, Strain/Indicator: TA1537, Metabolic Activation: RAT, LIVER, S-9, AROCLOR 1254, Method: STANDARD PLATE
[14] = Test System: Mouse lymphoma, Strain/Indicator: L5178Y (tk+/tk-), Metabolic Activation: None, Method: Suspension/plate
[15] = Test System: Mouse lymphoma, Strain/Indicator: L5178Y (tk+/tk-), Metabolic Activation: Rat, Liver, S-9, Aroclor 1254, Method: Suspension/plate

With `CN1C[C@H](C(=O)N[C@]2(C)O[C@@]3(O)[C@@H]4CCCN4C(=O)[C@H](Cc4ccccc4)N3C2=O)C=C2c3cccc4[nH]cc(c34)C[C@H]21` the mutagenic call (Test System: AMES SALMONELLA TYPHIMURIUM, Strain/Indicator: TA98, Metabolic Activation: HAMSTER, LIVER, S-9, AROCLOR 1254 (10%), Method: PREINCUBATION) was “inactive; negative”, the mutagenic call [1] was “inactive; negative” and the mutagenic call [2] was “inactive; negative”. The mutagenic call [3] was “inactive; negative”, the mutagenic call (Test System: AMES SALMONELLA TYPHIMURIUM, Strain/Indicator: TA98, Metabolic Activation: RAT, LIVER, S-9, AROCLOR 1254 (10%), Method: PREINCUBATION) was “inactive; negative” and the mutagenic call [4] was “inactive; negative”. The mutagenic call (Test System: AMES SALMONELLA TYPHIMURIUM, Strain/Indicator: TA100, Metabolic Activation: HAMSTER, LIVER, S-9, AROCLOR 1254 (10%), Method: PREINCUBATION) was “inactive; negative”, the mutagenic call [5] was “inactive; negative” and the mutagenic call (Test System: AMES SALMONELLA TYPHIMURIUM, Strain/Indicator: TA100, Metabolic Activation: NONE, Method: PREINCUBATION) was “inactive; negative”. The mutagenic call [6] was “inactive; negative”, the mutagenic call (Test System: AMES SALMONELLA TYPHIMURIUM, Strain/Indicator: TA100, Metabolic Activation: RAT, LIVER, S-9, AROCLOR 1254 (10%), Method: PREINCUBATION) was “inactive; negative” and the mutagenic call [7] was “inactive; negative”. For the same molecule, the mutagenic call (Test System: AMES SALMONELLA TYPHIMURIUM, Strain/Indicator: TA1535, Metabolic Activation: HAMSTER, LIVER, S-9, AROCLOR 1254 (10%), Method: PREINCUBATION) was “inactive; negative”, the mutagenic call [8] was “inactive; negative” and the mutagenic call (Test System: AMES SALMONELLA TYPHIMURIUM, Strain/Indicator: TA1535, Metabolic Activation: NONE, Method: PREINCUBATION) was “inactive; negative”. The mutagenic call [9] was “inactive; negative”, the mutagenic call (Test System: AMES SALMONELLA TYPHIMURIUM, Strain/Indicator: TA1535, Metabolic Activation: RAT, LIVER, S-9, AROCLOR 1254 (10%), Method: PREINCUBATION) was “inactive; negative” and the mutagenic call [10] was “inactive; negative”. The mutagenic call (Test System: AMES SALMONELLA TYPHIMURIUM, Strain/Indicator: TA1537, Metabolic Activation: HAMSTER, LIVER, S-9, AROCLOR 1254 (10%), Method: PREINCUBATION) was “inactive; negative”, the mutagenic call [11] was “inactive; negative” and the mutagenic call (Test System: AMES SALMONELLA TYPHIMURIUM, Strain/Indicator: TA1537, Metabolic Activation: NONE, Method: PREINCUBATION) was “inactive; negative”. The mutagenic call [12] was “inactive; negative”, the mutagenic call (Test System: AMES SALMONELLA TYPHIMURIUM, Strain/Indicator: TA1537, Metabolic Activation: RAT, LIVER, S-9, AROCLOR 1254 (10%), Method: PREINCUBATION) was “inactive; negative” and the mutagenic call [13] was “inactive; negative”. The mutagenic call (Test System: MOUSE LYMPHOMA, Strain/Indicator: L5178Y (TK+/TK-), Metabolic Activation: NONE, Method: SUSPENSION/PLATE) was “inactive; negative”, the mutagenic call (Test System: MOUSE LYMPHOMA, Strain/Indicator: L5178Y (TK+/TK-), Metabolic Activation: RAT, LIVER, S-9, AROCLOR 1254, Method: SUSPENSION/PLATE) was “inactive; negative” and the mutagenic call [14] was “inactive; negative”. For the same molecule, the mutagenic call [15] was “inactive; negative”.
For `O=[N+]([O-])c1ccc2c3c(cccc13)-c1cc3ccccc3cc1-2`, the mutagenic call [3] was “active; positive”.
With `O=C1CCCc2c1ccc1c([N+](=O)[O-])c3ccccc3cc21` the mutagenic call (Test System: AMES SALMONELLA TYPHIMURIUM, Strain/Indicator: TA98, Metabolic Activation: NONE) was “inactive; negative”, the mutagenic call (Test System: AMES SALMONELLA TYPHIMURIUM, Strain/Indicator: TA98, Metabolic Activation: S-9) was “inactive; negative” and the mutagenic call (Test System: AMES SALMONELLA TYPHIMURIUM, Strain/Indicator: TA100, Metabolic Activation: NONE) was “inactive; negative”. The mutagenic call (Test System: AMES SALMONELLA TYPHIMURIUM, Strain/Indicator: TA100, Metabolic Activation: S-9) was “inactive; negative”.
For `O=C1OC(O)C(CBr)=C1Br` (centres undefined), the mutagenic call [6] was “active; positive”.
For `COCCCN`, the mutagenic call [1] was “inactive; negative”, the mutagenic call [3] was “inactive; negative” and the mutagenic call [4] was “inactive; negative”. The mutagenic call [5] was “inactive; negative”, the mutagenic call [6] was “inactive; negative” and the mutagenic call [7] was “inactive; negative”. The mutagenic call [8] was “inactive; negative”, the mutagenic call [9] was “inactive; negative” and the mutagenic call [10] was “inactive; negative”. For the same molecule, the mutagenic call [11] was “inactive; negative”, the mutagenic call [12] was “inactive; negative” and the mutagenic call [13] was “inactive; negative”. The mutagenic call (Test System: AMES SALMONELLA TYPHIMURIUM, Strain/Indicator: TA1538, Metabolic Activation: HAMSTER, LIVER, S-9, AROCLOR 1254, Method: STANDARD PLATE) was “inactive; negative”, the mutagenic call (Test System: AMES SALMONELLA TYPHIMURIUM, Strain/Indicator: TA1538, Metabolic Activation: NONE, Method: STANDARD PLATE) was “inactive; negative” and the mutagenic call (Test System: AMES SALMONELLA TYPHIMURIUM, Strain/Indicator: TA1538, Metabolic Activation: RAT, LIVER, S-9, AROCLOR 1254, Method: STANDARD PLATE) was “inactive; negative”. For the same molecule, the mutagenic call [14] was “inactive; negative” and the mutagenic call [15] was “inactive; negative”.
`CC(=O)ON(C(C)=O)c1ccc(-c2ccccc2)cc1` was tested, and the mutagenic call (Test System: AMES SALMONELLA TYPHIMURIUM, Strain/Indicator: TA98(1,8-DNP6), Metabolic Activation: HUMAN, UROEPITHELIAL CELL, MICROSOMES, Method: PREINCUBATION) was “active; positive”, the mutagenic call (Test System: AMES SALMONELLA TYPHIMURIUM, Strain/Indicator: TA98(1,8-DNP6), Metabolic Activation: NONE, Method: PREINCUBATION) was “active; positive” and the mutagenic call (Test System: AMES SALMONELLA TYPHIMURIUM, Strain/Indicator: TA98, Metabolic Activation: DOG, BLADDER, MICROSOMES, Method: PREINCUBATION) was “active; positive”. For the same molecule, the mutagenic call (Test System: AMES SALMONELLA TYPHIMURIUM, Strain/Indicator: TA98, Metabolic Activation: DOG, LIVER, MICROSOMES, Method: PREINCUBATION) was “active; positive”, the mutagenic call (Test System: AMES SALMONELLA TYPHIMURIUM, Strain/Indicator: TA98, Metabolic Activation: HUMAN, UROEPITHELIAL CELL, CYTOSOL, Method: PREINCUBATION) was “inactive; negative” and the mutagenic call (Test System: AMES SALMONELLA TYPHIMURIUM, Strain/Indicator: TA98, Metabolic Activation: HUMAN, UROEPITHELIAL CELL, MICROSOMES, Method: PREINCUBATION) was “active; positive”. For the same molecule, the mutagenic call (Test System: AMES SALMONELLA TYPHIMURIUM, Strain/Indicator: TA98, Metabolic Activation: HUMAN, UROEPITHELIAL CELL, S-9, Method: PREINCUBATION) was “active; positive”, the mutagenic call [2] was “active; positive” and the mutagenic call (Test System: AMES SALMONELLA TYPHIMURIUM, Strain/Indicator: TA98, Metabolic Activation: RAT, BLADDER, MICROSOMES, Method: PREINCUBATION) was “active; positive”. The mutagenic call (Test System: AMES SALMONELLA TYPHIMURIUM, Strain/Indicator: TA98, Metabolic Activation: RAT, LIVER, MICROSOMES, Method: PREINCUBATION) was “active; positive”, the mutagenic call (Test System: AMES SALMONELLA TYPHIMURIUM, Strain/Indicator: YG1024, Metabolic Activation: HUMAN, UROEPITHELIAL CELL, MICROSOMES, Method: PREINCUBATION) was “active; positive” and the mutagenic call (Test System: UDS HUMAN FIBROBLASTS, Strain/Indicator: THY INCORP (NON-S-PHASE), Metabolic Activation: NONE, Method: AUTORADIOGRAPHY) was “active; positive”.
For `Fc1ccc2ncccc2c1F`, the mutagenic call (Test System: AMES SALMONELLA TYPHIMURIUM, Strain/Indicator: TA100, Metabolic Activation: RAT LIVER S-9, PHENOBARBITAL AND 5,6-BENZOFLAVONE, Method: PREINCUBATION) was “active; positive”.
